Test results taken from DBAASP.
Converted amounts (≈) assume the structure as drawn. One block for each compound: values may come before it.

Key:
Test in all cases: ≥ marks a high value that may be exact or a test limit, other limits are often not marked, values filed in µg/mL are converted to µM
[1] = tested on: Pseudomonas aeruginosa CICC 10419
[2] = tested on: Enterococcus faecium CMCC 1.2136
[3] = tested on: Escherichia coli O157:H7 CICC 21530
[4] = tested on: Salmonella enterica subsp. enterica serovar Pullorum CVCC 1789
[5] = tested on: Salmonella enterica subsp. enterica serovar Typhimurium ATCC 14028
[6] = tested on: Salmonella enterica subsp. enterica serovar Pullorum CVCC 1802
[7] = tested on: Staphylococcus aureus ATCC 43300
[8] = tested on: Bacillus subtilis ATCC 6633
[9] = tested on: Escherichia coli CVCC 1515
[10] = tested on: Staphylococcus aureus ATCC 25923
[11] = tested on: Salmonella enterica subsp. enterica serovar Enteritidis CVCC 3377
[12] = tested on: Salmonella enterica subsp. enterica serovar Choleraesuis CVCC 503
[13] = tested on: Streptococcus suis CVCC 606
[14] = tested on: Escherichia coli CVCC 195
[15] = tested on: Pseudomonas aeruginosa CICC 21630
[16] = tested on: Bacillus subtilis VKM B-501
Escherichia coli C600 = tested on: Escherichia coli C600
[17] = tested on: Staphylococcus aureus 209P
Pseudomonas aeruginosa = tested on: Pseudomonas aeruginosa
[18] = tested on: Staphylococcus epidermidis ATCC 12228
[19] = tested on: Escherichia coli BL21(DE3)
[20] = tested on: Pseudomonas aeruginosa ATCC 9027
[21] = tested on: Staphylococcus aureus ATCC 19636
[22] = tested on: Pseudomonas aeruginosa ATCC 27853
[23] = tested on: Staphylococcus aureus ATCC 29213
[24] = tested on: Escherichia coli ATCC 25922

- MIC [1]: ≥ 53 µM
- MIC [2]: 6.63 µM (≈ 16 µg/mL)
- MIC [3]: 6.63 µM (≈ 16 µg/mL)
- MIC [4]: ≥ 53 µM
- MIC [5]: > 26.5 µM
- MIC [6]: 13.3 µM (≈ 32 µg/mL)
- MIC [7]: > 26.5 µM
- MIC [8]: 1.66 µM (≈ 4 µg/mL)
- MIC [9]: 6.63 µM (≈ 16 µg/mL)
- MIC [10]: 0.829 µM (≈ 2 µg/mL)
- MIC [11]: 0.414 µM (≈ 1 µg/mL)
- MIC [13]: ≥ 53 µM
- MIC [14]: 13.3 µM (≈ 32 µg/mL)
- MIC [15]: ≥ 53 µM
SMILES: CC(C)[C@H](NC(=O)CNC(=O)[C@H](CC(N)=O)NC(=O)[C@H](CCCN=C(N)N)NC(=O)[C@H](Cc1ccc(O)cc1)NC(=O)[C@@H](NC(=O)[C@H](C)NC(=O)[C@@H](NC(=O)[C@H](CC(N)=O)NC(=O)[C@H](Cc1c[nH]c2ccccc12)NC(=O)[C@H](C)NC(=O)[C@H](Cc1ccccc1)NC(=O)CN)C(C)C)C(C)C)C(=O)N[C@@H](CCCN=C(N)N)C(=O)N[C@H](C(=O)N[C@@H](C)C(=O)N[C@@H](Cc1cnc[nH]1)C(=O)N[C@@H](CCCN=C(N)N)C(=O)N[C@@H](CCCN=C(N)N)C(=O)N[C@@H](C)C(=O)N[C@@H](CC(N)=O)C(=O)O)C(C)C [GFAWNVAVYRNGVRVAHRRAN]
- MIC [12]: 26.5 µM (≈ 64 µg/mL)

- MIC [16]: 0.7 µM (≈ 2.02 µg/mL)
- MIC (Escherichia coli C600): 6 µM (≈ 17.3 µg/mL)
- MIC [17]: 18 µM (≈ 51.9 µg/mL)
SMILES: CC[C@H](C)[C@H](NC(=O)[C@H](C)NC(=O)[C@H](CCCCN)NC(=O)[C@H](CCCN=C(N)N)NC(=O)CNC(=O)[C@H](CCCCN)NC(=O)[C@H](CCCCN)NC(=O)[C@H](CCCCN)NC(=O)[C@@H](NC(=O)[C@H](CC(C)C)NC(=O)[C@H](CCCCN)NC(=O)CNC(=O)[C@H](Cc1ccccc1)NC(=O)[C@H](CC(C)C)NC(=O)CN)[C@@H](C)CC)C(=O)N[C@@H](CO)C(=O)N[C@@H](Cc1ccc(O)cc1)C(=O)N[C@@H](C)C(=O)N[C@H](C(=O)N[C@@H](CCCCN)C(=O)N[C@@H](CCCCN)C(=O)N[C@@H](C)C(=O)N[C@@H](CCCN=C(N)N)C(=O)NCC(=O)N[C@@H](CCCCN)C(=O)N[C@@H](Cc1cnc[nH]1)C(=O)O)C(C)C [GLFGKLIKKKGRKAISYAVKKARGKH]

- MIC (Pseudomonas aeruginosa): 2.5 µM (≈ 4.3 µg/mL)
- MIC [18]: 0.025 µM (≈ 0.043 µg/mL)
- MIC [19]: 0.2 µM (≈ 0.344 µg/mL)
SMILES: CC[C@H](C)[C@H](NC(=O)[C@@H]1CCCN1C(=O)[C@H](CC(C)C)NC(=O)[C@H](CC(C)C)NC(=O)[C@H](CCCCN)NC(=O)[C@@H](N)CCCCN)C(=O)N[C@H](C(=O)N[C@@H](CCCCN)C(=O)N[C@@H](CC(N)=O)C(=O)N[C@@H](CC(C)C)C(=O)N[C@@H](CC(C)C)C(=O)N[C@@H](CCCCN)C(=O)N[C@@H](CO)C(=O)N[C@@H](CC(C)C)C(=O)N[C@@H](CC(C)C)C(=O)O)C(C)C [KKLLPIVKNLLKSLL]

- MIC [20]: 1.78 µM (≈ 3.1 µg/mL)
- MIC [21]: 0.918 µM (≈ 1.6 µg/mL)
- MIC [22]: 0.918 µM (≈ 1.6 µg/mL)
- MIC [23]: 7.17 µM (≈ 12.5 µg/mL)
- MIC [24]: 1.78 µM (≈ 3.1 µg/mL)
- MIC [10]: 7.17 µM (≈ 12.5 µg/mL)
SMILES: CC(C)C[C@H](NC(=O)[C@H](Cc1c[nH]c2ccccc12)NC(=O)[C@H](CCCCN)NC(=O)[C@H](CC(C)C)NC(=O)[C@H](Cc1c[nH]c2ccccc12)NC(=O)[C@H](C)NC(=O)[C@H](CCCN=C(N)N)NC(=O)[C@H](Cc1c[nH]c2ccccc12)NC(=O)[C@H](CCCCN)NC(=O)[C@@H](N)CCCCN)C(=O)N[C@@H](C)C(=O)N[C@@H](CCCCN)C(=O)N[C@@H](CCCCN)C(=O)O [KKWRAWLKWLAKK]
